Key:
S. pneumoniae [1] = conditions: 15 seconds incubation, then DIBO-ATTOS 488 for 5 min
Experimental: The reaction is stopped by three washes with 1 ml of cold PBS. The bacterium is then re-suspended in 20-40 μl of PBS and observed immediately by fluorescence microscopy.

S. pneumoniae [2] = conditions: grown 4 hours with 30 μM, then 25 μM DIBO Alexa Fluor 5 min
From the text: (§1) The choice was oriented towards a rapid click reaction involving an azide function carried by the choline and the strained dibenzoannulated cyclooctyne DIBO carrying the fluorophore. […] For subsequent click reaction, fluorescent DIBO offers a compromise between stability and rapidity with a choice of commercially available fluorophores.

S. pneumoniae R800 = conditions: C-medium without choline, 30 μM
Experimental: FIG. 15. […] In C-medium without choline (*), with 30 μM azidocholine (†) or choline (‡).
as §1

S. pneumoniae live cells = experiment: TA metabolic labeling on pneumococcal live cells (CuAAC with coumarin, fluorescence microscopy); assay type: cell-based, Streptococcus pneumoniae; conditions: copper 50 μM, THPTA, 30 min, five independent experiments
From the text: FIG. 10. TA metabolic labeling on pneumococcal live cells. A. Detection of metabolically incorporated propargyl-choline in S. pneumoniae living cells after bioorthogonal reaction. (i) and (ii) refer to two different stages of division. Membrane and septal TA labeling are indicated by black and white arrow heads, respectively. Phase contrast and fluorescence images in the presence (left panel) or absence of propargyl-choline (right panel) are shown. Scale bar=1 μm. B. Electron micrographs of pneumococcal cells at division stages (i) and (ii) as shown in A. C.
For bioorthogonal reactions, 10 ml of Cmed-choline and 10 ml of C-medium containing 4 μg/ml of propargyl-choline were inoculated at OD600 nm of 0.05 with aliquots of cells conditioned in C-medium as described above. The growth was pursued at 37° C.-5% CO2 for 3 hours until OD600 nm of 0.2-0.25 was reached, which corresponds to the early exponential growth phase. […]
Pneumococcal cells were transferred to microscope slides and observed using an Olympus BX61 optical microscope equipped with a UPFLN 100× O-2PH/1.3 objective and a QImaging Retiga-SRV 1394 cooled charge-coupled device camera. […] The cells are then sorted by their length value and the fluorescence values are plotted as a heat map. […]

Row | Compound | labeling quality after short pulse (S. pneumoniae [1]) | cell surface labeling pattern (S. pneumoniae [2]) | ability to replace choline for growth (S. pneumoniae R800) | fluorescent signal ratio propargyl-choline/choline (S. pneumoniae live cells)
1 | 1-azidoethyl-choline | high-quality labeling | Uniform cell surface labeling | efficiently replaced choline to allow growth | –
2 | C#CC[N+](C)(C)CCO [propargyl-choline] | – | – | – | 4.28±0.8

From patent US20200087703A1, “METABOLIC LABELING OF BACTERIAL TEICHOIC ACIDS CELL WALL” (priority 2017, published 2020)
